{
  "source": "patent US10195128B2",
  "about": "“Oral care compositions” (Colgate-Palmolive Company, priority 2016, dated 2019)",
  "origin": "cited, not measured here",
  "settings": "oral or intraperitoneal administration; after consumption",
  "data": [
    {"smiles": "COc1cc(CCC(C)=O)ccc1O", "note": "[zingerone, 4-(3-methoxy-4-hydroxyphenyl)-butan-2-one]", "values": [
      {"measurement": "Time to excretion of glucuronide compounds and sulphate conjugates in urine", "value": "≤ 24", "unit": "h"}
    ]}
  ]
}
